# Measurements taken from article PMC5761851, “Application of a phenotypic drug discovery strategy to identify biological and chemical starting points for inhibition of TSLP production in lung epithelial cells” (PLoS ONE, 2018).
# Where “and” joins values, the source holds several entries; their conditions need not be identical. Identical values can stand only once. Like-named read-outs stand apart in the source and are kept apart here.
# Experiments:
# MT3 (QR2) = target: T1, MT3 (QR2) (Mesocricetus auratus, UniProt A0ABM2YAB8); assay: BioPrint panel: MT3; assay type: binding
# T1 construct: Eurofins Pharma Discovery Services (contract assay service)
# T1 sequence (A0ABM2YAB8 1-231): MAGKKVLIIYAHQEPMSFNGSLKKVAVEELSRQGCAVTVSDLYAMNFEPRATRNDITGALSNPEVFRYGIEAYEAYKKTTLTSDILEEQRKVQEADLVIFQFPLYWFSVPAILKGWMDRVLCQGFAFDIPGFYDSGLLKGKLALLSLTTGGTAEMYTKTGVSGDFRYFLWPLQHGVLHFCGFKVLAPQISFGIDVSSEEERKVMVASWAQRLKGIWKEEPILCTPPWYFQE
# Protocol: General selectivity profiling was performed at Eurofins Pharma Discovery Services using the BioPrint® panel and reference database. The panel included 104 binding assays (non-peptide, peptide and nuclear receptors, ion channels and amine transporters) and 41 cell based and enzyme assays (including 10 kinases, 9 proteases and 5 phosphodiesterases) (S4 Table). More than 70% were human targets. Compound 4 was tested at a concentration of 1 μM in duplicate (10 μM for P-gp and CYP enzymes). The resulting bioactivity fingerprint was compared with a database of >2,500 BioPrint marketed drugs and reference compounds. IC50 values for selected activities were further characterized at 8 concentrations in duplicate.
# A1 = target: T2, A1 (Homo sapiens, UniProt P30542); assay: BioPrint panel: A1 (h) (agonist); assay type: binding; settings: 1 micromolar, read-out: percentage of inhibition of activity
# T2 construct: purchased Eurofins Pharma Discovery Services (KinaseProfiler; Cerep BioPrint panel)
# T2 sequence (P30542 whole entry): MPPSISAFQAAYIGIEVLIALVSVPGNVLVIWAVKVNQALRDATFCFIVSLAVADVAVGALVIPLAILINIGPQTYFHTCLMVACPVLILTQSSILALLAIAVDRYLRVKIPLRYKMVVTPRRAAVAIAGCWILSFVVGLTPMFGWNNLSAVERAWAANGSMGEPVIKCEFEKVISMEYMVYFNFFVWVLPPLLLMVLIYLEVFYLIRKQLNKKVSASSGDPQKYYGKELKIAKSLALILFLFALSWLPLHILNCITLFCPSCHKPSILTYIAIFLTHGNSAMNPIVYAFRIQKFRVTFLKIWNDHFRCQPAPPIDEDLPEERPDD
# From the text: (§1) Supplement pone.0189247.s004.xlsx, sheet "Bioprint Selectivity Panel" | column: %
# CB1 = target: T3, CB1 (Homo sapiens, UniProt P21554); assay: BioPrint panel: CB1 (h) (agonist); assay type: binding; settings: 1 micromolar, read-out: percentage of inhibition of activity
# T3 construct: purchased Eurofins Pharma Discovery Services (KinaseProfiler; Cerep BioPrint panel)
# From the text: as §1
# CCK1 (CCKA) = target: T4, CCK1 (CCKA) (Homo sapiens, UniProt P32238); assay: BioPrint panel: CCK1 (CCKA) (h) (agonist); assay type: binding; settings: 1 micromolar, read-out: percentage of inhibition of activity
# T4 construct: purchased Eurofins Pharma Discovery Services (KinaseProfiler; Cerep BioPrint panel)
# T4 sequence (P32238 whole entry): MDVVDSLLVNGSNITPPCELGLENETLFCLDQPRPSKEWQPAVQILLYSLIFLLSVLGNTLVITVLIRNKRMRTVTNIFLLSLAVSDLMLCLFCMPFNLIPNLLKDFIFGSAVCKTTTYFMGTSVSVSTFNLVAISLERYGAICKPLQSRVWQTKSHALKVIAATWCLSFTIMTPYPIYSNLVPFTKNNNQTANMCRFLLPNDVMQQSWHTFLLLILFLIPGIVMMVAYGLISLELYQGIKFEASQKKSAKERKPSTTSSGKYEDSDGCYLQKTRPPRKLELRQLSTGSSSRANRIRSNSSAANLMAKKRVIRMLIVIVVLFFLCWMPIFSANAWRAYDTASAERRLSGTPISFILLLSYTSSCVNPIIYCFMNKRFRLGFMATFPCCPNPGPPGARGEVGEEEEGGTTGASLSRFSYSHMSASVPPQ
# From the text: as §1
# CCK2 (CCKB) = target: T5, CCK2 (CCKB) (Homo sapiens, UniProt P32239); assay: BioPrint panel: CCK2 (CCKB) (h) (agonist); assay type: binding; settings: 1 micromolar, read-out: percentage of inhibition of activity
# T5 construct: purchased Eurofins Pharma Discovery Services (KinaseProfiler; Cerep BioPrint panel)
# T5 sequence (P32239 whole entry): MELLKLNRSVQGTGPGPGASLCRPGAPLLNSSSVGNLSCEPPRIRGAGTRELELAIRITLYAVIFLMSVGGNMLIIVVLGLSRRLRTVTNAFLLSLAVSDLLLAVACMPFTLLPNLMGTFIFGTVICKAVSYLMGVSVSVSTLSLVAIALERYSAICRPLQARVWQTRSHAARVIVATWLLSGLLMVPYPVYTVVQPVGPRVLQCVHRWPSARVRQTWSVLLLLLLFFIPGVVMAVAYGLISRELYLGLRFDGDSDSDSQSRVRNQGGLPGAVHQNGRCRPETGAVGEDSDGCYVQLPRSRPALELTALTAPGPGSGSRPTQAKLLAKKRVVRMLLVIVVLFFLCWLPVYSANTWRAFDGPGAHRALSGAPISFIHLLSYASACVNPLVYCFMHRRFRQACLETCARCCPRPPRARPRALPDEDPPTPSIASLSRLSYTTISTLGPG
# From the text: as §1
# CRF1 = target: T6, CRF1 (Homo sapiens, UniProt P34998); assay: BioPrint panel: CRF1 (h) (agonist); assay type: binding; settings: 1 micromolar, read-out: percentage of inhibition of activity
# T6 construct: purchased Eurofins Pharma Discovery Services (KinaseProfiler; Cerep BioPrint panel)
# T6 sequence (P34998 24-415): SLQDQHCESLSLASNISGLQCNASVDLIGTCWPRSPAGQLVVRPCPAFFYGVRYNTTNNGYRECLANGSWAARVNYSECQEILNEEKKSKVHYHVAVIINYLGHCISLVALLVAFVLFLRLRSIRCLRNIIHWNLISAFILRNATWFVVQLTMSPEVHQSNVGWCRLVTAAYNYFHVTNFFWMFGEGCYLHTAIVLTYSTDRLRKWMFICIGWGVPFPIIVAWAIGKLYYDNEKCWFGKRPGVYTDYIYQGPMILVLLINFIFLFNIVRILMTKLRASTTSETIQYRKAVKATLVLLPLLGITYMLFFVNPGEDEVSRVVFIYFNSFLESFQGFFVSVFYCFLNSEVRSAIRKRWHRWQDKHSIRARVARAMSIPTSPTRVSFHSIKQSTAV
# From the text: as §1
# CysLT1 (LTD4) = target: T7, CysLT1 (LTD4) (Homo sapiens, UniProt Q9Y271); assay: BioPrint panel: CysLT1 (LTD4) (h) (agonist); assay type: binding; settings: 1 micromolar, read-out: percentage of inhibition of activity
# T7 construct: purchased Eurofins Pharma Discovery Services (KinaseProfiler; Cerep BioPrint panel)
# T7 sequence (Q9Y271 whole entry): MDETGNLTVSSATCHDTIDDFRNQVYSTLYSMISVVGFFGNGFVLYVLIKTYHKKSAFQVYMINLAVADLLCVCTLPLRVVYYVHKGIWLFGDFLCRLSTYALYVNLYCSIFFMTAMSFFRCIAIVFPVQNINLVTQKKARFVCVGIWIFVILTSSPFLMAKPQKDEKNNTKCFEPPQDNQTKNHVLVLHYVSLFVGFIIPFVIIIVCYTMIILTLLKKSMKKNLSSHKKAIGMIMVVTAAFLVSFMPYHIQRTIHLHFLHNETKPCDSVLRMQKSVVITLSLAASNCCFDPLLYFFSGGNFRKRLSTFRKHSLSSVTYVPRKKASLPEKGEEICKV
# From the text: as §1
# MCH1 = target: T8, MCH1 (Homo sapiens, UniProt Q99705); assay: BioPrint panel: MCH1 (h) (agonist); assay type: binding; settings: 1 micromolar, read-out: percentage of inhibition of activity
# T8 construct: purchased Eurofins Pharma Discovery Services (KinaseProfiler; Cerep BioPrint panel)
# From the text: as §1
# MC3 = target: T9, MC3 (Homo sapiens, UniProt P41968); assay: BioPrint panel: MC3 (h) (agonist); assay type: binding; settings: 1 micromolar, read-out: percentage of inhibition of activity
# T9 construct: purchased Eurofins Pharma Discovery Services (KinaseProfiler; Cerep BioPrint panel)
# T9 sequence (P41968 whole entry): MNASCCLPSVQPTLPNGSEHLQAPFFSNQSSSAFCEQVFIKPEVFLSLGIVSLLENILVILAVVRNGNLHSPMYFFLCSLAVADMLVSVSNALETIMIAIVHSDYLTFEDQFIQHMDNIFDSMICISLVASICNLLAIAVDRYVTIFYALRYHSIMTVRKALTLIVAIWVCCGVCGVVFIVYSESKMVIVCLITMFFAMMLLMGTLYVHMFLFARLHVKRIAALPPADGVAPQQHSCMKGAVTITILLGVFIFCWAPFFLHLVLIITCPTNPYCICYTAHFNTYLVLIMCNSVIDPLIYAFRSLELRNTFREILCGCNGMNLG
# From the text: as §1
# M2 = target: T10, M2 (Homo sapiens, UniProt P08172); assay: BioPrint panel: M2 (h) (antagonist); assay type: binding; settings: 1 micromolar, read-out: percentage of inhibition of activity
# T10 construct: purchased Eurofins Pharma Discovery Services (KinaseProfiler; Cerep BioPrint panel)
# From the text: as §1
# N neuronal a4 b2 = target: T11, N neuronal a4 b2 (Homo sapiens, UniProt P17787+P43681); assay: BioPrint panel: N neuronal a4 b2 (h) (agonist); assay type: binding; settings: 1 micromolar, read-out: percentage of inhibition of activity
# T11 construct: purchased Eurofins Pharma Discovery Services (KinaseProfiler; Cerep BioPrint panel)
# From the text: as §1
# N muscle-type = assay: BioPrint panel: N muscle-type (h) (antagonist); assay type: binding, human; settings: 1 micromolar
# From the text: as §1
# delta 2 (DOP) = target: T12, delta 2 (DOP) (Homo sapiens, UniProt P41143); assay: BioPrint panel: delta 2 (DOP) (h) (agonist); assay type: binding; settings: 1 micromolar, read-out: percentage of inhibition of activity
# T12 construct: purchased Eurofins Pharma Discovery Services (KinaseProfiler; Cerep BioPrint panel)
# T12 sequence (P41143 whole entry): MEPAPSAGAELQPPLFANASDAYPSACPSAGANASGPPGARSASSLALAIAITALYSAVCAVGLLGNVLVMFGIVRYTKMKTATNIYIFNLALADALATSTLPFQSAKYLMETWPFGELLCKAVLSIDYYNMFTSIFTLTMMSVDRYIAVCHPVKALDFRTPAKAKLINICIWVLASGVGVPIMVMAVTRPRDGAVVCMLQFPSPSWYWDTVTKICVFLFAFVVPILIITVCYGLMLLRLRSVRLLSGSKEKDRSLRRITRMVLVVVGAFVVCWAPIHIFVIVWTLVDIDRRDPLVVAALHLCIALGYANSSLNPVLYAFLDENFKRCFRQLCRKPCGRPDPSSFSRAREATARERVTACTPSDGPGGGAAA
# From the text: as §1
# kappa (KOP) = target: T13, kappa (KOP) (Rattus norvegicus, UniProt P34975); assay: BioPrint panel: kappa (KOP) (agonist); assay type: binding; settings: 1 micromolar, read-out: percentage of inhibition of activity
# T13 construct: purchased Eurofins Pharma Discovery Services (KinaseProfiler; Cerep BioPrint panel)
# T13 sequence (P34975 whole entry): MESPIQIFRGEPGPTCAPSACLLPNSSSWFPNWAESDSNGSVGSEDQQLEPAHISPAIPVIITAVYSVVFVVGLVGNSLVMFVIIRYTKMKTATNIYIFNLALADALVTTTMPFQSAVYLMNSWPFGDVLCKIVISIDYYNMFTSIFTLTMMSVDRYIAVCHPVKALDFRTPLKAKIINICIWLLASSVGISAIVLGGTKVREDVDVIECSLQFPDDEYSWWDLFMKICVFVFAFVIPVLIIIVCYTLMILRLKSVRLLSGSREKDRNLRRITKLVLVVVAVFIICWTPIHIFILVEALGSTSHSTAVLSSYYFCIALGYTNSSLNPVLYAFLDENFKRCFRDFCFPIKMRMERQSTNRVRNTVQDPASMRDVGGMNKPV
# From the text: as §1
# mu (MOP) = target: T14, mu (MOP) (Homo sapiens, UniProt P35372); assay: BioPrint panel: mu (MOP) (h) (agonist); assay type: binding; settings: 1 micromolar, read-out: percentage of inhibition of activity
# T14 construct: purchased Eurofins Pharma Discovery Services (KinaseProfiler; Cerep BioPrint panel)
# From the text: as §1
# LXRbeta = target: T15, LXRbeta (Homo sapiens, UniProt P55055); assay: BioPrint panel: LXRbeta (h) (agonist); assay type: binding; settings: 1 micromolar, read-out: percentage of inhibition of activity
# T15 construct: purchased Eurofins Pharma Discovery Services (KinaseProfiler; Cerep BioPrint panel)
# T15 sequence (P55055 whole entry): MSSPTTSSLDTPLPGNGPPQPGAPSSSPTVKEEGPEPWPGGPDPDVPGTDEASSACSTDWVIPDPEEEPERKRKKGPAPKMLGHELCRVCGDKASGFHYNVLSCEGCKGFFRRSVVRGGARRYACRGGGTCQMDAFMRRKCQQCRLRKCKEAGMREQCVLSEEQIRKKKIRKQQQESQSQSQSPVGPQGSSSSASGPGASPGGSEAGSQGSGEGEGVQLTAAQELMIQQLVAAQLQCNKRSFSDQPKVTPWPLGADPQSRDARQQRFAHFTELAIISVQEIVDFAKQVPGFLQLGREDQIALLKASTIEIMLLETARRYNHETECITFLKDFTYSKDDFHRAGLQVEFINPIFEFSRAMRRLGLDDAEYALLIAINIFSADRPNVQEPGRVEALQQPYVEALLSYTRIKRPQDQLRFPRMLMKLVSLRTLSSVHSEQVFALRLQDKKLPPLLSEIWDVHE
# From the text: as §1
# 5-HT6 = target: T16, 5-HT6 (Homo sapiens, UniProt P50406); assay: BioPrint panel: 5-HT6 (h) (agonist); assay type: binding; settings: 1 micromolar, read-out: percentage of inhibition of activity
# T16 construct: purchased Eurofins Pharma Discovery Services (KinaseProfiler; Cerep BioPrint panel)
# T16 sequence (P50406 whole entry): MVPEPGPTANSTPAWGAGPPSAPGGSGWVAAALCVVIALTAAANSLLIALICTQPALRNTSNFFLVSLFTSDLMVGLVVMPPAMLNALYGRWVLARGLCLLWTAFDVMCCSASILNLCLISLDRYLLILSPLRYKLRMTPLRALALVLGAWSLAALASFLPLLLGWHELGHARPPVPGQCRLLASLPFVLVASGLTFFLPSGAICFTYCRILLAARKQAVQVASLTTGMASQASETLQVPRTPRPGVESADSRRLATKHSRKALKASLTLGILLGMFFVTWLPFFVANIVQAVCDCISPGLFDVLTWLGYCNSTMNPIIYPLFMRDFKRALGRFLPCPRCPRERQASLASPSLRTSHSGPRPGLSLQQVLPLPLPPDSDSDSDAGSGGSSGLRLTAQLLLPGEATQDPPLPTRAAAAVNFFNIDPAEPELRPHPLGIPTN
# From the text: as §1
# GABA transporter = assay: BioPrint panel: GABA transporter (antagonist); assay type: binding; settings: 1 micromolar
# From the text: as §1
# COX1 = target: T17, COX1 (Homo sapiens, UniProt P23219); assay: BioPrint panel: COX1 (h); assay type: biochemical; settings: 1 micromolar, read-out: percentage of inhibition of activity
# T17 construct: purchased Eurofins Pharma Discovery Services (KinaseProfiler; Cerep BioPrint panel)
# T17 sequence (P23219 24-599): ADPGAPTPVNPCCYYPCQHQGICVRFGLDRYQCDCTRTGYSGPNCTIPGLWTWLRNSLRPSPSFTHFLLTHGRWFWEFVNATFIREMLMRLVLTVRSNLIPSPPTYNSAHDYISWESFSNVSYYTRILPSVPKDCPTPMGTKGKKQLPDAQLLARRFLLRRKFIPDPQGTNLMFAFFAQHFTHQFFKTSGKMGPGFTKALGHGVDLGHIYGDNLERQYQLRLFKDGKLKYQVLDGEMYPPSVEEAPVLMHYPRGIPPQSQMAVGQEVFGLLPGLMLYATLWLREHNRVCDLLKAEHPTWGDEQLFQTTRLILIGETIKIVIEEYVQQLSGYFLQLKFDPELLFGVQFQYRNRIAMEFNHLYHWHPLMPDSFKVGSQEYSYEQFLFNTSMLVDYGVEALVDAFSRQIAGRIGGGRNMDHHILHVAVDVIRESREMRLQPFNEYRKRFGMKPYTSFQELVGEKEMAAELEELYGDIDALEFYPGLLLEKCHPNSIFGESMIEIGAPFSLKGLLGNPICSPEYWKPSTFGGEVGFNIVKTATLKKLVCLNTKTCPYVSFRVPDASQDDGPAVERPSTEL
# From the text: as §1
# PDE2A1 = PDE2A1 (Homo sapiens, UniProt O00408); assay: BioPrint panel: PDE2A1 (h); assay type: biochemical; settings: 1 micromolar, read-out: percentage of inhibition of activity
# From the text: as §1
# Fyn = target: T18, Fyn (Homo sapiens, UniProt P06241); assay: BioPrint panel: Fyn kinase (h); assay type: biochemical; settings: 1 micromolar, read-out: percentage of inhibition of activity
# T18 construct: purchased Eurofins Pharma Discovery Services (KinaseProfiler; Cerep BioPrint panel)
# From the text: as §1
# ZAP-70 = target: T19, ZAP-70 (Homo sapiens, UniProt P43403); assay: BioPrint panel: ZAP70 kinase (h); assay type: biochemical; settings: 1 micromolar, read-out: percentage of inhibition of activity
# T19 construct: purchased Eurofins Pharma Discovery Services (KinaseProfiler; Cerep BioPrint panel)
# T19 sequence (P43403 1-619): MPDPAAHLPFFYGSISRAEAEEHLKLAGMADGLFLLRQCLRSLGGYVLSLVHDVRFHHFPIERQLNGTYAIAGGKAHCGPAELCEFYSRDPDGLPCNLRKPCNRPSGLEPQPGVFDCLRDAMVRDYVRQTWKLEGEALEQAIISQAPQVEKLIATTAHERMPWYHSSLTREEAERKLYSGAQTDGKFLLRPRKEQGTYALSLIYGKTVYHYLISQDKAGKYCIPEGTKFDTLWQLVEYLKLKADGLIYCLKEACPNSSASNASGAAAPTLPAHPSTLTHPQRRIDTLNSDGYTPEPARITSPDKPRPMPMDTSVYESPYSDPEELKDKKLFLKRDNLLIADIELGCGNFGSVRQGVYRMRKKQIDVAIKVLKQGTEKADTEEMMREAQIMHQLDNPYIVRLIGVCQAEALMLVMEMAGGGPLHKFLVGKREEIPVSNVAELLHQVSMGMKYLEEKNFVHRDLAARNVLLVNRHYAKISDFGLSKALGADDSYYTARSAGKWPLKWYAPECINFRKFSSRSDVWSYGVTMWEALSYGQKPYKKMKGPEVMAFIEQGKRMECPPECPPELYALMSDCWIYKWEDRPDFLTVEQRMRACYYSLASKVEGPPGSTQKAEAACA
# From the text: as §1
# p38α = p38α (Homo sapiens, UniProt Q16539); assay: enzymatic p38 activity; assay type: biochemical
# Chain of p38α (Q16539 whole entry): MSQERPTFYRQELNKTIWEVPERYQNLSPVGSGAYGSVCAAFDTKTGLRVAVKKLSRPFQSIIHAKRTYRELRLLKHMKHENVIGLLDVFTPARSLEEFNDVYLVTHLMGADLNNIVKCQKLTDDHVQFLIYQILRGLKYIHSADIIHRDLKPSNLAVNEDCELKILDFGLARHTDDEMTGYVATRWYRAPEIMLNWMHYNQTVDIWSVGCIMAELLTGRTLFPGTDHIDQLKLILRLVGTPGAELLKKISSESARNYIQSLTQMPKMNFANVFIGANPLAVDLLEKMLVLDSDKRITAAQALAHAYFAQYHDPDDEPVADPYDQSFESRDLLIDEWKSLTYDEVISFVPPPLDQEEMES
compound,measurement,setting,value
Cn1cc(-c2cccc(-c3nc(C(=O)NC4C5CC6CC4CC(O)(C6)C5)c(N)nc3N)c2)cn1 (centres unmarked) [compound 4],inhibition at 1 µM,"MT3 (QR2); 1 μM, read-out: inhibition of MT3",71%
same,inhibition at 1 µM,"MT3 (QR2); 1 micromolar, MT3 (ML2) (agonist), read-out: percentage of inhibition of activity",71.9%
same,IC50,"MT3 (QR2); dose response, duplicate, read-out: Inhibition of indicated activity (IC50, μM): MT3 (QR2)",0.4 µM
same,inhibition at 1 µM,A1,-11.2%
same,inhibition at 1 µM,CB1,3.7%
same,inhibition at 1 µM,CCK1 (CCKA),-0.1%
same,inhibition at 1 µM,CCK2 (CCKB),-3.4%
same,inhibition at 1 µM,CRF1,-37%
same,inhibition at 1 µM,CysLT1 (LTD4),6.1%
same,inhibition at 1 µM,MCH1,34.6%
same,inhibition at 1 µM,MC3,8.8%
same,inhibition at 1 µM,M2,19.5%
same,inhibition at 1 µM,N neuronal a4 b2,-13.9%
same,percentage of inhibition of activity,N muscle-type,-17.1%
same,inhibition at 1 µM,delta 2 (DOP),-0.2%
same,inhibition at 1 µM,kappa (KOP),11.8%
same,inhibition at 1 µM,mu (MOP),-2.6%
same,inhibition at 1 µM,LXRbeta,4.1%
same,inhibition at 1 µM,5-HT6,-5.3%
same,percentage of inhibition of activity,GABA transporter,1.1%
same,inhibition at 1 µM,COX1,-4.3%
same,inhibition at 1 µM,PDE2A1,6.7%
same,inhibition at 1 µM,Fyn,-9.2%
same,inhibition at 1 µM,ZAP-70,5.5%
"COc1c(NC(=O)c2ccc(C)c(-c3nnc4c(NCC(C)(C)C)nccn34)c2)cc(C(C)(C)C)cc1NS(C)(=O)=O [compound 7, reference compound]",IC50,"p38α; geometric mean, read-out: Activity in reference biochemical assay (IC50, μM) (95% CI) p38α",0.003 µM
same,IC50,"p38α; individual values, read-out: Biochemical activity (IC50, mM) (p38a)",0.008 µM and 0.005 µM and 0.001 µM
